Test system: MRSA #712
Test: Mouse septicemia (systemic infection), PD50
Assay type: in vivo, Staphylococcus aureus
Conditions: CD-1 mice, IP inoculum, 2 SC doses at 1 and 6 hrs, 7 day survival
Experimental: In vivo efficacy of (I) was evaluated against strains of MRSA, and ceftazidime-resistant Pa and Klebsiella pneumonia (Kpn) in mouse septicemia, thigh and lung infections. Septicemia: CD-1 mice received lethal bacterial inocula IP, followed by 2 doses of antibiotics SC at 1 and 6 hrs post-inoculation. Dose calculated to protect 50% of the mice (PD50) was derived based on probit analysis of percentage survival. Thigh and lung infections: Thighs or lungs of neutropenic mice were inoculated with MRSA or Pa. Two treatment doses were given SC at 1 and 6 hrs post-inoculation. Tissues were harvested at ˜24 hrs post-inoculation and bacterial burdens quantified.
II. […] MIC was determined in MHB by standard CLSI microdilution. […] The survival of animals was recorded daily for 7 days. The antibiotic dose calculated to protect 50% of the mice (PD50) was derived based on probit analysis of percentage survival. • E. Mouse Thigh and Lung Infections: Mice were rendered neutropenic by two IP injections of cyclophosphamide 4 days (150 mg/kg) and 1 day (100 mg/kg) before bacterial inoculation. […] Tissue bacterial burdens were quantified by serial dilution and spiral plating of homogenates.
III. […] The dose that protected 50% of the mice (PD50) was calculated by probit analysis based on percentage of mice surviving for 7 days post-inoculation. • C. […]

`CO/N=C(\C(=O)N[C@@H]1C(=O)N2C(C(=O)[O-])=C(C[n+]3ccc(N)c(NC(=O)Nc4ccc(CCNC(=N)N)cc4)c3)CS[C@H]12)c1nc(N)sc1Cl` [(I)] was tested, and the “Septicemia PD50 (± SE)” value was 2.0 ± 0.3 mg/kg.

Reference: patent publication US8809314B1, “Cephalosporin compound” (Cubist Pharmaceuticals, Inc., priority 2012, dated 2014)
